Experiments:
[1] = molecular target: 5-hydroxytryptamine receptor 2A (Homo sapiens, UniProt P28223)
[2] = molecular target: 5-hydroxytryptamine receptor 3A (Mus musculus, UniProt P23979)
[3] = molecular target: 5-hydroxytryptamine receptor 1A (Homo sapiens, UniProt P08908)
[4] = molecular target: Alpha-2C adrenergic receptor (Homo sapiens, UniProt P18825)
[5] = molecular target: Substance-P receptor (Homo sapiens, UniProt P25103)
[6] = molecular target: Kappa-type opioid receptor (Cavia porcellus, UniProt P41144)
[7] = molecular target: Neuromedin-K receptor (Homo sapiens, UniProt P29371)
[8] = molecular target: 5-hydroxytryptamine receptor 6 (Homo sapiens, UniProt P50406)
[9] = molecular target: D(3) dopamine receptor (Homo sapiens, UniProt P35462)
[10] = molecular target: 5-hydroxytryptamine receptor 2C (Homo sapiens, UniProt P28335)
[11] = molecular target: 5-hydroxytryptamine receptor 7 (Homo sapiens, UniProt P34969)
[12] = molecular target: Sodium- and chloride-dependent glycine transporter 2 (Homo sapiens, UniProt Q9Y345)
[13] = molecular target: Alpha-1A adrenergic receptor (Homo sapiens, UniProt P35348)
[14] = molecular target: Gastrin/cholecystokinin type B receptor (Homo sapiens, UniProt P32239)
[15] = molecular target: Mu-type opioid receptor (Homo sapiens, UniProt P35372)
[16] = molecular target: Norepinephrine transporter (Rattus norvegicus, UniProt Q9JIA2)
[17] = molecular target: Beta-2 adrenergic receptor (Homo sapiens, UniProt P07550)
[18] = molecular target: 5-hydroxytryptamine receptor 1E (Homo sapiens, UniProt P28566)
[19] = molecular target: Gastrin/cholecystokinin type B receptor (Rattus norvegicus, UniProt P30553)
[20] = molecular target: Voltage-dependent L-type calcium channel subunit alpha-1C (Rattus norvegicus, UniProt P22002)
[21] = molecular target: Beta-1 adrenergic receptor (Homo sapiens, UniProt P08588)
[22] = molecular target: Histamine H1 receptor (Homo sapiens, UniProt P35367)
[23] = molecular target: Alpha-2B adrenergic receptor (Homo sapiens, UniProt P18089)
[24] = molecular target: Delta-type opioid receptor (Homo sapiens, UniProt P41143)
[25] = molecular target: Substance-K receptor (Homo sapiens, UniProt P21452)
[26] = molecular target: Glutamate receptor ionotropic, NMDA 1 (Rattus norvegicus, UniProt P35439)
[27] = molecular target: Neurotensin (Cavia porcellus, UniProt P32560)
[28] = molecular target: 5-hydroxytryptamine receptor 5A (Homo sapiens, UniProt P47898)
[29] = molecular target: Beta-3 adrenergic receptor (Homo sapiens, UniProt P13945)
[30] = molecular target: 5-hydroxytryptamine receptor 1D (Homo sapiens, UniProt P28221)
[31] = molecular target: 5-hydroxytryptamine receptor 1F (Homo sapiens, UniProt P30939)
[32] = molecular target: Cysteinyl leukotriene receptor 1 (Cavia porcellus, UniProt Q2NNR5)
[33] = molecular target: D(4) dopamine receptor (Homo sapiens, UniProt P21917)
[34] = molecular target: Sodium-dependent dopamine transporter (Rattus norvegicus, UniProt P23977)
[35] = molecular target: Vasoactive intestinal polypeptide receptor 1 (Homo sapiens, UniProt P32241)
[36] = molecular target: Thromboxane A2 receptor (Homo sapiens, UniProt P21731)
[37] = molecular target: Alpha-2A adrenergic receptor (Homo sapiens, UniProt P08913)
[38] = molecular target: Sodium- and chloride-dependent glycine transporter 1 (Rattus norvegicus, UniProt P28572)
[39] = molecular target: B2 bradykinin receptor (Homo sapiens, UniProt P30411)

Sequence of Alpha-1A adrenergic receptor (P35348 whole entry): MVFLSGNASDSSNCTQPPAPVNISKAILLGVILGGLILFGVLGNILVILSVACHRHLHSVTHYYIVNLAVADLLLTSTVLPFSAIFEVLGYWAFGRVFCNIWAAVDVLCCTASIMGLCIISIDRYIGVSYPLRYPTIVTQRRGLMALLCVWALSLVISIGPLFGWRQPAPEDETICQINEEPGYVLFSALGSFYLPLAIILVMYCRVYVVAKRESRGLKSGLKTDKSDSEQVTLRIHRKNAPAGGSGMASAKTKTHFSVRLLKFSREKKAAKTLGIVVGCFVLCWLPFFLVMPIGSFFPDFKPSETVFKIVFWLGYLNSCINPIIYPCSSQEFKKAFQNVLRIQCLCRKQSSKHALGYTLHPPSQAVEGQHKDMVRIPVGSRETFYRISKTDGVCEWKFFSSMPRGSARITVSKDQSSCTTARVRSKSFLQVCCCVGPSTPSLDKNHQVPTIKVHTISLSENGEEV
Sequence of Mu-type opioid receptor (P35372 whole entry): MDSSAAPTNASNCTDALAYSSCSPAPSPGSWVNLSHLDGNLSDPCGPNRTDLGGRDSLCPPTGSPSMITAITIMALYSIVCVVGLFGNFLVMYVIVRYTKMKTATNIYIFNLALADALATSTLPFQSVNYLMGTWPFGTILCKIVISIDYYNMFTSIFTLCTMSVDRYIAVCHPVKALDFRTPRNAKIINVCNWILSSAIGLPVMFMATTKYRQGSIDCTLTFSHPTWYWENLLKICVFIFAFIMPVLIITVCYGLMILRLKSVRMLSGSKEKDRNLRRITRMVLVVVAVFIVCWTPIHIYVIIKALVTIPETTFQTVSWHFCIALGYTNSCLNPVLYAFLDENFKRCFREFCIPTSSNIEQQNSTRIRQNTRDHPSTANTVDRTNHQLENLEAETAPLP
Sequence of Cysteinyl leukotriene receptor 1 (Q2NNR5 whole entry): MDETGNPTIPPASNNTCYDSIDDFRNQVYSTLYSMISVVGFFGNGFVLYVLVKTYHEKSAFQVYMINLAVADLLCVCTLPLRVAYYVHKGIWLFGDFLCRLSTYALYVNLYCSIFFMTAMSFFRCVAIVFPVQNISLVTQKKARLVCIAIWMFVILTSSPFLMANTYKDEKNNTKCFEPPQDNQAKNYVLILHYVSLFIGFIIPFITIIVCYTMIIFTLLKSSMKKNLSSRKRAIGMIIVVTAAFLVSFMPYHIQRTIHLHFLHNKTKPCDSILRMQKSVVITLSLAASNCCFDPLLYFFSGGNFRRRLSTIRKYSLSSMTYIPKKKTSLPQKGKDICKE
Sequence of 5-hydroxytryptamine receptor 6 (P50406 whole entry): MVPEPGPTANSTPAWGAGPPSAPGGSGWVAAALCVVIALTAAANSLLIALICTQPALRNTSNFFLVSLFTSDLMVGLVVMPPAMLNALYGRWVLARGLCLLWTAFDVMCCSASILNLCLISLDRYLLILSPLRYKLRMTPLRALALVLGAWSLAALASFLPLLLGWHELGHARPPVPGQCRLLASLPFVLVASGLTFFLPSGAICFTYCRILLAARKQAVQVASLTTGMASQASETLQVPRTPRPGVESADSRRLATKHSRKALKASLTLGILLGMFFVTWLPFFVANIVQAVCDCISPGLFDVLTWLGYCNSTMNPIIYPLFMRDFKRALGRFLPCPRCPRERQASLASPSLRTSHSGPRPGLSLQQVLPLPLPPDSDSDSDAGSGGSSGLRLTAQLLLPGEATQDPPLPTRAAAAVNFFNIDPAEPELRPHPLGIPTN
Sequence of Histamine H1 receptor (P35367 whole entry): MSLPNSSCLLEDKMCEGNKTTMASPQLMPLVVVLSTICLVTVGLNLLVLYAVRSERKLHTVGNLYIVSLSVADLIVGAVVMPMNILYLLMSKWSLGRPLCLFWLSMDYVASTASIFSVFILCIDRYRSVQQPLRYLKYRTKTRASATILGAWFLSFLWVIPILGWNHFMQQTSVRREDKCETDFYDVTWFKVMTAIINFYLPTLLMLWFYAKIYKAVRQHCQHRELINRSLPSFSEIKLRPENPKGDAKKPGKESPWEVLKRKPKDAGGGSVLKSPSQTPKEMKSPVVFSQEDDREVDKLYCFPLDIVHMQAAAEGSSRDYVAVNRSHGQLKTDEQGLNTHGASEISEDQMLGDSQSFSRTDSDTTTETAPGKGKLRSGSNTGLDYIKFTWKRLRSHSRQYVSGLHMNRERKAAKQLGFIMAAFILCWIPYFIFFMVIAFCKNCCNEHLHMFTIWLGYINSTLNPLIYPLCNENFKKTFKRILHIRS
Sequence of Alpha-2A adrenergic receptor (P08913 whole entry): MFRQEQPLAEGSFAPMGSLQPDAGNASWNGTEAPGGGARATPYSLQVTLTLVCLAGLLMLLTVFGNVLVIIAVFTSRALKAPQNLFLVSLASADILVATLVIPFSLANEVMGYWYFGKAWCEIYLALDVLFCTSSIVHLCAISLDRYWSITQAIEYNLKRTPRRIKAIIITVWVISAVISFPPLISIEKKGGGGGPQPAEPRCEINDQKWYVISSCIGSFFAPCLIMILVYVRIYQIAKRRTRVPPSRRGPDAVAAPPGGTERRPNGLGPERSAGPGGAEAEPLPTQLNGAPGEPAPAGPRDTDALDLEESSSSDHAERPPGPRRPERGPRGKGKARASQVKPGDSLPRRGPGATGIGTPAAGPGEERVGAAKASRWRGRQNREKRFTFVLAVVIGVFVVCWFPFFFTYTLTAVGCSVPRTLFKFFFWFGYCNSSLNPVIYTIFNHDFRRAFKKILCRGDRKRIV
Sequence of 5-hydroxytryptamine receptor 1D (P28221 whole entry): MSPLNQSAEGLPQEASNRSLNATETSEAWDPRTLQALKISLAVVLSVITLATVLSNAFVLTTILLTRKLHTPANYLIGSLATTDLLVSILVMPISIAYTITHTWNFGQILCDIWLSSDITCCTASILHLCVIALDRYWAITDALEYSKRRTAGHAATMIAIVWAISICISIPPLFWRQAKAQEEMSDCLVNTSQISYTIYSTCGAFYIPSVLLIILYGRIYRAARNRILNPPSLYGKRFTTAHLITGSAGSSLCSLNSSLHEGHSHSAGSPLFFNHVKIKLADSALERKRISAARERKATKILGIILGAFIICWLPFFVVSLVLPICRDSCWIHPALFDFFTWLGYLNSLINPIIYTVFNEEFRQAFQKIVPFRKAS
Sequence of Sodium- and chloride-dependent glycine transporter 2 (Q9Y345 whole entry): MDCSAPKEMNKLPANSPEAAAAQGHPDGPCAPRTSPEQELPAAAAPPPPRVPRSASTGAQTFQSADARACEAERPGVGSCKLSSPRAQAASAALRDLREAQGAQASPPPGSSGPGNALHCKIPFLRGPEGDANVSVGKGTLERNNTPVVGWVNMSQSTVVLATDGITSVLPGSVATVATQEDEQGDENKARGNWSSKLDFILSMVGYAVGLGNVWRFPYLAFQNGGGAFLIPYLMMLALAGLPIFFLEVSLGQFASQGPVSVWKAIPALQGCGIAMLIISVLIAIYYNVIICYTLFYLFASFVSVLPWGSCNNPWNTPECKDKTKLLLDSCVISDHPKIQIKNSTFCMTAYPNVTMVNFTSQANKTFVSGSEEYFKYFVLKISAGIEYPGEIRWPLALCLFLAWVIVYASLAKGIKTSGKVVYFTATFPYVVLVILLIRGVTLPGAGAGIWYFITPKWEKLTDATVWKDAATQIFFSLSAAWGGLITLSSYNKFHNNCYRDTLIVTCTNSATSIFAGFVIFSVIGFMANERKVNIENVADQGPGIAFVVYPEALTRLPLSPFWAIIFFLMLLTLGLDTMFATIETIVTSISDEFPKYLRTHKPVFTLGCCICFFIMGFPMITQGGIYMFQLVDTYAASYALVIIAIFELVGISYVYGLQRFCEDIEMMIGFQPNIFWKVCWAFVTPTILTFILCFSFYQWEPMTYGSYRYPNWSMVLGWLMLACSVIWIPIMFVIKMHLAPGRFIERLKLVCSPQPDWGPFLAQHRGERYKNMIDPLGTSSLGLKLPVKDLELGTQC
Sequence of Delta-type opioid receptor (P41143 whole entry): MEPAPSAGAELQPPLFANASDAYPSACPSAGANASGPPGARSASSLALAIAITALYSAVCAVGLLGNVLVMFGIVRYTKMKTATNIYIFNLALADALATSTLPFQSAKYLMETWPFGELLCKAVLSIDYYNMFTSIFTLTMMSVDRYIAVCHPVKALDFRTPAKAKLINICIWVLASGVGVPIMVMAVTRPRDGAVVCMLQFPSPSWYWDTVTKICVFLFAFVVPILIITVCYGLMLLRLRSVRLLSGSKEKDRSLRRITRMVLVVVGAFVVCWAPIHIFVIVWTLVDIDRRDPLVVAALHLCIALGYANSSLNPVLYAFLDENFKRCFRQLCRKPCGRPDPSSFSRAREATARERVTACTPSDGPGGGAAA
Sequence of 5-hydroxytryptamine receptor 2C (P28335 whole entry): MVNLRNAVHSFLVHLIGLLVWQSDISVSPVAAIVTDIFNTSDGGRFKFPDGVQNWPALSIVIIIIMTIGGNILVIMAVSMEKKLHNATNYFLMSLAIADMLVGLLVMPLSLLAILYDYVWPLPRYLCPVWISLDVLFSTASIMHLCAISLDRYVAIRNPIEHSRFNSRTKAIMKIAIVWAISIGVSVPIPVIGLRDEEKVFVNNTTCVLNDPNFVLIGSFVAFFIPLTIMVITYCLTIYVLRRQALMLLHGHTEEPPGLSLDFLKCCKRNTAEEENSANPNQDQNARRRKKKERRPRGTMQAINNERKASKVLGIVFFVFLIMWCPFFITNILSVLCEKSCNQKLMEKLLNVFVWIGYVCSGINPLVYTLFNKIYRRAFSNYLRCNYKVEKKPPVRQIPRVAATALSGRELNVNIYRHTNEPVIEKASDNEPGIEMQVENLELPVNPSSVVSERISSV
Sequence of 5-hydroxytryptamine receptor 1F (P30939 whole entry): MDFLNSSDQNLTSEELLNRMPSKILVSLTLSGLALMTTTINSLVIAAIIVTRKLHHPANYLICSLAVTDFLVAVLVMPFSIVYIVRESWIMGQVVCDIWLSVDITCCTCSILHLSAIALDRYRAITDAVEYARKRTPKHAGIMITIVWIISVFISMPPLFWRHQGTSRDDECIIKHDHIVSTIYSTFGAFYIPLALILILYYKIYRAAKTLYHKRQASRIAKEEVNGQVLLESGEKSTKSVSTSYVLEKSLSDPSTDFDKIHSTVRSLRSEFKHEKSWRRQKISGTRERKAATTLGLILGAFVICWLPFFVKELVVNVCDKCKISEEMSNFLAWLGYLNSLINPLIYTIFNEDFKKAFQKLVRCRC

COCCCN1CCC(NC(=O)c2cc(Cl)c(N)c3c2OCC3)CC1 [4-Amino-5-chloro-2,3-dihydro-benzofuran-7-carboxylic acid [1-(3-methoxy-propyl)-piperidin-4-yl]-amide]
Ki [1]: > 10 µM | Ki [2]: 3.82 µM | Ki [3]: > 10 µM | Ki [4]: > 10 µM | Ki [5]: > 10 µM | Ki [6]: > 10 µM | Ki [7]: > 10 µM | Ki [8]: > 10 µM | Ki [9]: > 10 µM | Ki [10]: > 10 µM | Ki [11]: > 10 µM | Ki [12]: > 10 µM | Ki [13]: > 10 µM | Ki [14]: > 10 µM | Ki [15]: > 10 µM | Ki [16]: > 10 µM | Ki [17]: > 10 µM | Ki [18]: > 10 µM | Ki [19]: > 10 µM | Ki [20]: > 10 µM | Ki [21]: > 10 µM | Ki [22]: > 10 µM | Ki [23]: > 10 µM | Ki [24]: > 10 µM | Ki [25]: > 10 µM | Ki [26]: > 10 µM | Ki [27]: > 10 µM | Ki [28]: > 10 µM | Ki [29]: > 10 µM | Ki [30]: > 10 µM | Ki [31]: > 10 µM | Ki [32]: > 10 µM | Ki [33]: 2.35 µM | Ki [34]: > 10 µM | Ki [35]: > 10 µM | Ki [36]: > 10 µM | Ki [37]: > 10 µM | Ki [38]: > 10 µM | Ki [39]: > 10 µM

Source: BindingDB's records for doi:10.1016/s0014-2999(01)01087-1 (Janssen Research Foundation, 2001)
